Measured values: paper PMC6789442, “Unraveling Hepcidin Plasma Protein Binding: Evidence from Peritoneal Equilibration Testing” (Pharmaceuticals, 2019)
Where two headings read alike, the source gives them in different places.

Tests used:
[1] = tested on: plasma proteins; test: Plasma protein binding percentage calculated from measured vs expected peritoneal clearance (MW-clearance curve); type: in vivo, human; conditions: (1 − measured PC / expected PC) × 100%; expected PC from Log10(PC) = 4.5744 – 0.05063 × cube root MW; ESRD patients in PET; mean (±sd)
Text: Logarithmic transformation was used for PC data before statistical analysis, as the data was not normally distributed. In addition, we used a cube root scaling for MW, since transport rates are related to size and thus radius (r), and considering volume as a three-dimensional characteristic of the radius (r^3). The curve describing the relation between MW and PC of all analytes was estimated with a linear mixed model using a random slope and random intercept. The expected PC of each analyte could be calculated using its MW and the equation of the curve. We calculated the binding percentage as:Binding percentage (%) = (1 − (Measured PC)/(Expected PC)) × 100%.(3)
In this equation, the measured PC divided by the expected PC represents the free hormone fraction. The strength of a linear association between the clearances of two analytes was measured using Spearman’s correlation coefficient.

[2] = Solute concentration in blood (plasma/serum) before dialysis
Method: (§1) All were centrifuged at 2000 g for 10 min.
(§2) Measurements of urea, creatinine, and IgG were performed on a Cobas C8000 random access analyzer (Roche Diagnostics, Basel, Switzerland).
(§3) This MS-based assay determines total hepcidin (i.e., the sum of bound and unbound fraction). Peptide spectra were generated on a Microflex LT […] laser desorption/ionisation TOF MS platform (Bruker Daltonics, Hamburg, Germany). Hepcidin concentrations were expressed as nmol/L. The lower limit of quantification of this method was 0.5 nM.
Cortisol and testosterone were analyzed by Liquid Chromatography-Mass Spectrometry (LC-MS/MS) after protein precipitation and solid-phase extraction. Internal standard [^2H4]-cortisol and [^13C3]-testosterone (Isoscience, Ambler, PA, USA) was added to 100 µL serum. Subsequently, 300 µL acetonitrile with 0.1% formic acid was added for protein precipitation and 300 µL H2O was added to 200 µL supernatant followed by solid phase extraction (Oasis HLB 1cc, Waters, Milford, MA, USA). The eluate (methanol:isopropanol 95:5) was dried under a stream of N2 gas, reconstituted in methanol:water (3:7) and injected (10 µL) into an Agilent Technologies 1290 Infinity Ultra High Performance Liquid Chromatography (UHPLC)-system (Agilent Technologies, Agilent, Santa Clara, CA, USA) equipped with a BEH C18 (1.7 μm 2.1 × 50 mm) analytical column (Waters Corp.) at 60 °C. Mobile phase A (methanol:water 20:80 + 2 mM NH4CH3COO + 0.1% formic acid) and B (methanol:water 98:2 + 2 mM NH4CH3COO + 0.1% formic acid) were run in a gradient (0.4 mL/min). Start gradient 70:30 A:B for 2.5 min; then to 40:60 A:B in 3.5 min; followed by a gradient in 0.5 min to 2:98 to remain such for 0.5 min and thereafter to 70:30 A:B in 0.5 min and remain such for 0.5 min. […] Total run time was 8 min. A 9-point calibration curve was used (cortisol and testosterone, Steraloids). An Agilent 6490 tandem mass spectrometer (Agilent Technologies, Agilent, Santa Clara, CA, USA) was operated in the electrospray positive ion mode, with a capillary voltage 3.5 kV, fragmentor voltage 380 V, sheath gas temperature 350 °C, and gas temperature 150 °C with N2 collision gas. Two transitions (qualitative and quantitative) were monitored. Transitions (Q1 > Q3) were m/z 363.4 > 97.1 (34 V) and m/z 363.4 > 121.1 (25 V) for cortisol; m/z 367.4 > 97.1 (34 V) and m/z 367.4 > 121.1 (25 V) for [2H4]-cortisol. m/z 289.2 > 109.1 […] and m/z 289.2 > 97.1 […] for testosterone; m/z 292.3 > 112.1 […] and m/z 292.3 > 100.1 […] for 13C3-testosterone. Dwell time was 100 ms and 50 ms for cortisol and testosterone, respectively.

[3] = Solute concentration in peritoneal dialysate at 1 h dwell
Method: as §1, §2, §3
Testosterone and cortisol in peritoneal dialysate were analyzed by LC-MS/MS after solid-phase extraction. Sample preparation consisted of internal standard addition [13C3]-testosterone (Isoscience, Ambler, PA, USA) and […] (Isoscience) to 1000 µL dialysate and solid phase extraction (SPE) using Oasis® MCX 1cc cartridges (Waters Corp, Milford, MA, USA).
Columns were pre-equilibrated with 1 mL MeOH:IPA (95:5) and subsequently washed with 1 mL H2O. After application of the sample, columns were washed with 1 mL H2O:NH4OH (95:5) and 1 mL MeOH:H2O (20/80) + 2% HCOOH. The 300 µL eluate (MeOH) was dried under a stream of N2 gas, reconstituted in MeOH:H2O (30:70). A nine-point calibration series was used (using testosterone and cortisol both from Steraloids). Calibrators, quality controls, and samples (reconstituted in 100 µL) were injected (10 µL) into an Agilent Technologies 1290 Infinity VL UHPLC-system (Agilent Technologies, Santa Clara, USA), equipped with a BEH C18 (1.7 μm 2.1 X 50 mm) analytical column (Waters Corp., Milford, MA, USA) at 60 °C. Mobile phase A (MeOH/H2O (20:80) + 2 mM NH4CH3COO + 0.1% HCOOH) and B (MeOH/H2O (98:2) + 2 mM NH4CH3COO + 0.1% HCOOH) were run in a gradient (0.4 mL/min). The gradient program was as follows: Start gradient A:B (70:30) for 2.5 min; followed by a gradient in 2 min to A:B (60:40) and subsequent 2.5 min A:B (35:65). For column washing, a gradient 0.5 min A:B (98:2) was established to remain such for 0.5 min. The column was re-equilibrated to A:B (70:30) in 0.5 min and remained such for 0.5 min. […] An Agilent 6490 tandem mass spectrometer (Agilent Technologies, Santa Clara, CA, USA) was operated in the electrospray positive ion mode. Operating conditions were as follows: Capillary voltage 3.5 kV, fragmentor voltage 380 V, sheath gas temperature 350 °C, and gas temperature 150 °C. The collision energy was optimized between 25 and 34 eV for all solutes and Nitrogen was used as collision gas. Two mass transitions were monitored for each analyte and the internal standards. The first transition was used for quantification, the second for confirmation. The transitions (Q1 > Q3) were m/z 289 > 97 and m/z 289 > 109 for testosterone; m/z 292 > 100 and m/z 292 > 112 for [13C3]-testosterone; m/z 363 > 121 and m/z 363 > 97 for cortisol; m/z 367 > 121 and m/z 367 > 97 for [3H4]-cortisol. Total run time was 9 min.
For both total and free cortisol PC calculations, we used total cortisol measurements in dialysate, since we assume that all cortisol present in dialysate after 1 h of dwell time is free considering the large MW of its main binding protein corticosteroid binding globulin (MW 52 kDa).

[4] = in vivo
[5] = ESRD patients, serum at t = 0 h, equilibrium dialysis 5 h, 37 °C, 5 kDa membrane, HEPES buffer pH 7.40, LC-MS/MS, N = 9
[6] = Peritoneal clearance from peritoneal equilibration test (PET); conditions: ESRD patients in PET; for Peritoneal Clearance t = 0–1 h Mean (sd): [Dialysate] t = 1 h / [Blood] t = 0 h × dialysate volume / 60 min, total blood concentration, N 14, 13 testosterone, 10 cortisol, 13 hepcidin
[7] = rapidly excreted by the kidneys; cited from earlier work
Text: Our finding that hepcidin is not predominantly bound is in line with other literature, in which a merely freely circulating hepcidin was observed using gel chromatography on human serum samples, followed by Liquid Chromatography-Mass Spectrometry (LC-MS/MS). In fact, other peptide hormones such as human growth hormone, insulin [28], and cardiac natriuretic hormones circulate freely, since peptide hormones are often water-soluble and can, therefore, easily be transported via the cardiovascular system without requiring carrier proteins. In addition, hepcidin is ...

[8] = peritoneal dialysate at 1 h dwell, 3.86% glucose solution, ESRD patients, total measurement, mean (sd), N 13 testosterone, 10 cortisol, 13 hepcidin

Molecule	Binding percentage (protein-bound fraction) [1]	[Plasma] t = 0 h Mean (sd), total concentration ([2]; in vivo)	[Dialysate] t = 1 h Mean (sd) [3, 8]	Peritoneal Clearance t = 0–1 h Mean (sd) [4]	[Dialysate] t = 1 h Mean (sd) ([3]; in vivo)	Peritoneal Clearance t = 0–1 h Mean (sd) [6]	also measured
C[C@]12CCC(=O)C=C1CC[C@@H]1[C@@H]2[C@@H](O)C[C@@]2(C)[C@H]1CC[C@]2(O)C(=O)CO [Cortisol, cortisol]	91% (±3%)	229.1 (134.4) nmol/L	8.4 (5.8) nmol/L	1439.0 (490.8) µL/min	–	–	[Dialysate] t = 1 h Mean (sd), row of free cortisol ([3]; total cortisol measured in dialysate at 1 h, assumed to be all free, used for free cortisol clearance, mean (sd), N = 9): 8.4 (5.8) nmol/L; [Plasma] t = 0 h Mean (sd), free cortisol [5]: 12.7 (7.7) nmol/L; Peritoneal Clearance t = 0–1 h Mean (sd), free cortisol ([6]; calculated with free serum cortisol at t = 0 h and total cortisol in dialysate at 1 h, N = 9): 25,030.8 (8123.9) µL/min
CN1CC(=O)NC1=N [Creatinine, creatinine]	–	–	–	21,499.6 (5861.6) µL/min	296.9 (119.9) µmol/L	–	[Plasma] t = 0 h Mean (sd) ([2]; in vivo): 542.0 (172.6) µmol/L
C[C@]12CC[C@H]3[C@@H](CCC4=CC(=O)CC[C@@]43C)[C@@H]1CC[C@@H]2O [Testosterone, testosterone]	97% (±1.5%)	–	0.1 (0.1) nmol/L	–	–	507.7 (260.5) µL/min	[Plasma] t = 0 h Mean (sd), total concentration ([2]; ESRD patients undergoing PET, blood at t = 0 h, total = free and protein-bound, cortisol/testosterone LC-MS/MS, hepcidin WCX-TOF MS, mean (sd), N 13 testosterone, 10 cortisol, 13 hepcidin): 8.6 (7.3) nmol/L
NC(N)=O [Urea, urea]	–	–	–	–	–	26,959.1 (6211.8) µL/min	[Plasma] t = 0 h Mean (sd) ([2]; ESRD patients on peritoneal dialysis undergoing PET, blood drawn before dialysis (t = 0 h), endogenous solute, mean (sd), N = 14): 21.5 (6.6) mmol/L; [Dialysate] t = 1 h Mean (sd) ([3]; peritoneal dialysate at 1 h dwell, 3.86% glucose solution, ESRD patients, mean (sd), N = 14): 15.0 (6.1) mmol/L
hepcidin	40% (±23%)	10.6 (9.1) nmol/L	–	–	1.2 (1.1) nmol/L	4337.5 (1713.1) µL/min	half-life [7]: several hours
